Test results: ChEMBL document CHEMBL1148353, “Development of potent bifunctional endomorphin-2 analogues with mixed mu-/delta-opioid agonist and delta-opioid antagonist properties” (J Med Chem, 2004)
Where a SMILES comes first, the peptide text is derived from it. [ ]: non-standard residue; d: D form. The star is where a group is joined. Dmt = Cc1cc(O)cc(C)c1C[C@H](N)C(=O)O; NHPhenethyl = c1ccc(CCN*)cc1; NHBn = c1ccc(CN*)cc1

The compounds below were run against Delta-type opioid receptor (Rattus norvegicus, UniProt P33533) (assay: Binding affinity against rat brain opioid receptor delta 1 using [3H]DPDPE radioligand).
Chain of Delta-type opioid receptor (P33533 whole entry): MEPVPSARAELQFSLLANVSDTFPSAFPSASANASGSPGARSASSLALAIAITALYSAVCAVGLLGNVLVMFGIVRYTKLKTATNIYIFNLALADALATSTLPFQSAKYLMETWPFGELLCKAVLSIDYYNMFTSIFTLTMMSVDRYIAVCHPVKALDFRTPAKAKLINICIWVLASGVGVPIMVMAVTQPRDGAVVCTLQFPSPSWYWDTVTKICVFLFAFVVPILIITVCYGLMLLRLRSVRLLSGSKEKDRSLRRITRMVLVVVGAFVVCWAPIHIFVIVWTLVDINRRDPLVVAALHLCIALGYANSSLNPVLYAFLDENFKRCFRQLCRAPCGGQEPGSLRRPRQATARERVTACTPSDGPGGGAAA

Row | SMILES | Ki [nM]
1 | N[C@@H](Cc1ccc(O)cc1)C(=O)N1CCC[C@H]1C(=O)N[C@@H](Cc1ccccc1)C(=O)NCc1ccccc1 (H-Tyr-Pro-Phe-NHBn) | 1730
2 | Cc1cc(O)cc(C)c1C[C@H](N)C(=O)N1CCC[C@H]1C(=O)N[C@@H](Cc1ccccc1)C(=O)Nc1ccncc1 | 52.7
3 | Cc1cc(O)cc(C)c1C[C@H](N)C(=O)N1CCC[C@H]1C(=O)N[C@@H](Cc1ccccc1)C(=O)Nc1cccc2cnccc12 | 98.3
4 | Cc1cc(O)cc(C)c1C[C@H](N)C(=O)N1CCC[C@H]1C(=O)N[C@@H](Cc1ccccc1)C(=O)NCCc1ccccc1 (H-[Dmt]-Pro-Phe-NHPhenethyl) | 18
5 | N[C@@H](Cc1ccc(O)cc1)C(=O)N1CCC[C@H]1C(=O)N[C@@H](Cc1ccccc1)C(=O)NC1C2C[C@H]3C[C@@H](C2)C[C@@H]1C3 (some centres not stated) | 5560
6 | Cc1cc(O)cc(C)c1C[C@H](N)C(=O)N1CCC[C@H]1C(=O)N[C@@H](Cc1ccccc1)C(=O)N[C@@H](Cc1ccccc1)C(N)=O | 28.2
7 | N[C@@H](Cc1ccc(O)cc1)C(=O)N1CCC[C@H]1C(=O)N[C@@H](Cc1ccccc1)C(=O)Nc1cnc2ccccc2c1 | 18600
8 | N[C@@H](Cc1ccc(O)cc1)C(=O)N1CCC[C@H]1C(=O)N[C@@H](Cc1ccccc1)C(=O)Nc1ccccn1 | 19700
9 | Cc1cc(O)cc(C)c1C[C@H](N)C(=O)N1CCC[C@H]1C(=O)N[C@@H](Cc1ccccc1)C(=O)Nc1ccc2ncccc2c1 | 46.6
10 | N[C@@H](Cc1ccc(O)cc1)C(=O)N1CCC[C@H]1C(=O)N[C@@H](Cc1ccccc1)C(=O)NC1CCCCC1 | 8110
11 | N[C@@H](Cc1ccc(O)cc1)C(=O)N1CCC[C@H]1C(=O)N[C@@H](Cc1ccccc1)C(=O)Nc1cccc2ncccc12 | 12700
12 | N[C@@H](Cc1ccc(O)cc1)C(=O)N1CCC[C@H]1C(=O)N[C@@H](Cc1ccccc1)C(=O)Nc1ccncc1 | 25100
13 | Cc1cc(O)cc(C)c1C[C@H](N)C(=O)N1CCC[C@H]1C(=O)N[C@@H](Cc1ccccc1)C(=O)Nc1ccccn1 | 157
14 | Cc1cc(O)cc(C)c1C[C@H](N)C(=O)N1CCC[C@H]1C(=O)N[C@@H](Cc1ccccc1)C(=O)Nc1cccnc1 | 288
15 | Cc1cc(O)cc(C)c1C[C@H](N)C(=O)N1CCC[C@H]1C(=O)N[C@@H](Cc1ccccc1)C(=O)Nc1cccc2cccnc12 | 33.1

Each compound was assayed against Mu-type opioid receptor (Rattus norvegicus, UniProt P33535) (assay: Binding affinity against rat brain Opioid receptor mu 1 using [3H]DAMGO radioligand).
Chain of Mu-type opioid receptor (P33535 whole entry): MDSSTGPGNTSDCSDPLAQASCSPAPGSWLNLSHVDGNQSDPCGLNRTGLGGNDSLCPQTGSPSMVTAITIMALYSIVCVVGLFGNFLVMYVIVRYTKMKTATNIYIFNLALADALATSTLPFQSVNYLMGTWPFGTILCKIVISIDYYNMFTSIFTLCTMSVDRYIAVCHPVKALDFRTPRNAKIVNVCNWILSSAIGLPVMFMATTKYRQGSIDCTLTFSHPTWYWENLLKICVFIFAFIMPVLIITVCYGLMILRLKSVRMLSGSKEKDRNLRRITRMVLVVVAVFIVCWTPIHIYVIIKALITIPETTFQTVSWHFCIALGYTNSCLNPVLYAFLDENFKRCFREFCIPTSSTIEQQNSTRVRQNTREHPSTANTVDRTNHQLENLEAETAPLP

Row | SMILES | Ki [nM]
16 | N[C@@H](Cc1ccc(O)cc1)C(=O)N1CCC[C@H]1C(=O)N[C@@H](Cc1ccccc1)C(=O)NCc1ccccc1 (H-Tyr-Pro-Phe-NHBn) | 21.6
17 | Cc1cc(O)cc(C)c1C[C@H](N)C(=O)N1CCC[C@H]1C(=O)N[C@@H](Cc1ccccc1)C(=O)Nc1ccncc1 | 0.36
18 | Cc1cc(O)cc(C)c1C[C@H](N)C(=O)N1CCC[C@H]1C(=O)N[C@@H](Cc1ccccc1)C(=O)Nc1cccc2cnccc12 | 0.19
19 | Cc1cc(O)cc(C)c1C[C@H](N)C(=O)N1CCC[C@H]1C(=O)N[C@@H](Cc1ccccc1)C(=O)NCCc1ccccc1 (H-[Dmt]-Pro-Phe-NHPhenethyl) | 0.51
20 | N[C@@H](Cc1ccc(O)cc1)C(=O)N1CCC[C@H]1C(=O)N[C@@H](Cc1ccccc1)C(=O)NC1C2C[C@H]3C[C@@H](C2)C[C@@H]1C3 (some centres not stated) | 6.59
21 | Cc1cc(O)cc(C)c1C[C@H](N)C(=O)N1CCC[C@H]1C(=O)N[C@@H](Cc1ccccc1)C(=O)N[C@@H](Cc1ccccc1)C(N)=O | 0.15
22 | N[C@@H](Cc1ccc(O)cc1)C(=O)N1CCC[C@H]1C(=O)N[C@@H](Cc1ccccc1)C(=O)Nc1cnc2ccccc2c1 | 55.8
23 | N[C@@H](Cc1ccc(O)cc1)C(=O)N1CCC[C@H]1C(=O)N[C@@H](Cc1ccccc1)C(=O)Nc1ccccn1 | 26.5
24 | Cc1cc(O)cc(C)c1C[C@H](N)C(=O)N1CCC[C@H]1C(=O)N[C@@H](Cc1ccccc1)C(=O)Nc1ccc2ncccc2c1 | 0.22
25 | N[C@@H](Cc1ccc(O)cc1)C(=O)N1CCC[C@H]1C(=O)N[C@@H](Cc1ccccc1)C(=O)NC1CCCCC1 | 5.79
26 | N[C@@H](Cc1ccc(O)cc1)C(=O)N1CCC[C@H]1C(=O)N[C@@H](Cc1ccccc1)C(=O)Nc1cccc2ncccc12 | 4.07
27 | N[C@@H](Cc1ccc(O)cc1)C(=O)N1CCC[C@H]1C(=O)N[C@@H](Cc1ccccc1)C(=O)Nc1ccncc1 | 48.2
28 | Cc1cc(O)cc(C)c1C[C@H](N)C(=O)N1CCC[C@H]1C(=O)N[C@@H](Cc1ccccc1)C(=O)Nc1ccccn1 | 0.13
29 | Cc1cc(O)cc(C)c1C[C@H](N)C(=O)N1CCC[C@H]1C(=O)N[C@@H](Cc1ccccc1)C(=O)Nc1cccnc1 | 0.17
30 | Cc1cc(O)cc(C)c1C[C@H](N)C(=O)N1CCC[C@H]1C(=O)N[C@@H](Cc1ccccc1)C(=O)Nc1cccc2cccnc12 | 0.49

These compounds were tested against Opioid receptors; mu & delta (Rattus norvegicus) (UniProt P33533+P33535) (assay: Ratio of binding affinity against rat brain delta opioid receptor to that of mu opioid receptor).
Chain of Opioid receptors; mu & delta (Rattus norvegicus) (P33533 whole entry, looked up): as the sequence (P33533 whole entry) above
Chain of Opioid receptors; mu & delta (Rattus norvegicus) (P33535 whole entry, looked up): as the sequence (P33535 whole entry) above

Row | SMILES | Ratio
31 | N[C@@H](Cc1ccc(O)cc1)C(=O)N1CCC[C@H]1C(=O)N[C@@H](Cc1ccccc1)C(=O)NCc1ccccc1 (H-Tyr-Pro-Phe-NHBn) | 80
32 | Cc1cc(O)cc(C)c1C[C@H](N)C(=O)N1CCC[C@H]1C(=O)N[C@@H](Cc1ccccc1)C(=O)NCCc1ccccc1 (H-[Dmt]-Pro-Phe-NHPhenethyl) | 35
33 | N[C@@H](Cc1ccc(O)cc1)C(=O)N1CCC[C@H]1C(=O)N[C@@H](Cc1ccccc1)C(=O)NC1C2C[C@H]3C[C@@H](C2)C[C@@H]1C3 (some centres not stated) | 844
34 | Cc1cc(O)cc(C)c1C[C@H](N)C(=O)N1CCC[C@H]1C(=O)N[C@@H](Cc1ccccc1)C(=O)N[C@@H](Cc1ccccc1)C(N)=O | 188
35 | N[C@@H](Cc1ccc(O)cc1)C(=O)N1CCC[C@H]1C(=O)N[C@@H](Cc1ccccc1)C(=O)Nc1cnc2ccccc2c1 | 333
36 | N[C@@H](Cc1ccc(O)cc1)C(=O)N1CCC[C@H]1C(=O)N[C@@H](Cc1ccccc1)C(=O)Nc1ccccn1 | 742
37 | N[C@@H](Cc1ccc(O)cc1)C(=O)N1CCC[C@H]1C(=O)N[C@@H](Cc1ccccc1)C(=O)NC1CCCCC1 | 1400
38 | N[C@@H](Cc1ccc(O)cc1)C(=O)N1CCC[C@H]1C(=O)N[C@@H](Cc1ccccc1)C(=O)Nc1cccc2ncccc12 | 3110
39 | N[C@@H](Cc1ccc(O)cc1)C(=O)N1CCC[C@H]1C(=O)N[C@@H](Cc1ccccc1)C(=O)Nc1ccncc1 | 521

Species: Mus musculus
Experiment: In vitro inhibitory concentration against electrically induced twitches in mouse vas deferens
Assay type: functional

Row | SMILES | IC50 [nM]
40 | NC(=O)[C@H](Cc1ccccc1)NC(=O)[C@H](Cc1ccccc1)NC(=O)[C@@H]1CCCN1C(=O)[C@@H](N)Cc1ccc(O)cc1 [ENDOMORPHIN 2] | 344
41 | Cc1cc(O)cc(C)c1C[C@H](N)C(=O)N1CCC[C@H]1C(=O)N[C@@H](Cc1ccccc1)C(=O)Nc1ccncc1 | 10000
42 | Cc1cc(O)cc(C)c1C[C@H](N)C(=O)N1CCC[C@H]1C(=O)N[C@@H](Cc1ccccc1)C(=O)Nc1cccc2cnccc12 | > 10000
43 | Cc1cc(O)cc(C)c1C[C@H](N)C(=O)N1CCC[C@H]1C(=O)N[C@@H](Cc1ccccc1)C(=O)NCCc1ccccc1 (H-[Dmt]-Pro-Phe-NHPhenethyl) | > 10000
44 | Cc1cc(O)cc(C)c1C[C@H](N)C(=O)N1CCC[C@H]1C(=O)N[C@@H](Cc1ccccc1)C(=O)N[C@@H](Cc1ccccc1)C(N)=O | 1.87
45 | Cc1cc(O)cc(C)c1C[C@H](N)C(=O)N1CCC[C@H]1C(=O)N[C@@H](Cc1ccccc1)C(=O)Nc1ccc2ncccc2c1 | > 10000
46 | Cc1cc(O)cc(C)c1C[C@H](N)C(=O)N1CCC[C@H]1C(=O)N[C@@H](Cc1ccccc1)C(=O)Nc1ccccn1 | > 10000
47 | Cc1cc(O)cc(C)c1C[C@H](N)C(=O)N1CCC[C@H]1C(=O)N[C@@H](Cc1ccccc1)C(=O)Nc1cccnc1 | > 10000
48 | Cc1cc(O)cc(C)c1C[C@H](N)C(=O)N1CCC[C@H]1C(=O)N[C@@H](Cc1ccccc1)C(=O)Nc1cccc2cccnc12 | 2980

Species: Cavia porcellus
Experiment: In vitro inhibitory concentration against electrically induced twitches in guinea pig ileum
Assay type: functional

Row | SMILES | IC50 [nM]
49 | NC(=O)[C@H](Cc1ccccc1)NC(=O)[C@H](Cc1ccccc1)NC(=O)[C@@H]1CCCN1C(=O)[C@@H](N)Cc1ccc(O)cc1 [ENDOMORPHIN 2] | 5.79
50 | Cc1cc(O)cc(C)c1C[C@H](N)C(=O)N1CCC[C@H]1C(=O)N[C@@H](Cc1ccccc1)C(=O)Nc1ccncc1 | 11.8
51 | Cc1cc(O)cc(C)c1C[C@H](N)C(=O)N1CCC[C@H]1C(=O)N[C@@H](Cc1ccccc1)C(=O)Nc1cccc2cnccc12 | 0.94
52 | Cc1cc(O)cc(C)c1C[C@H](N)C(=O)N1CCC[C@H]1C(=O)N[C@@H](Cc1ccccc1)C(=O)NCCc1ccccc1 (H-[Dmt]-Pro-Phe-NHPhenethyl) | 5.03
53 | Cc1cc(O)cc(C)c1C[C@H](N)C(=O)N1CCC[C@H]1C(=O)N[C@@H](Cc1ccccc1)C(=O)N[C@@H](Cc1ccccc1)C(N)=O | 0.07
54 | Cc1cc(O)cc(C)c1C[C@H](N)C(=O)N1CCC[C@H]1C(=O)N[C@@H](Cc1ccccc1)C(=O)Nc1ccc2ncccc2c1 | 6.21
55 | Cc1cc(O)cc(C)c1C[C@H](N)C(=O)N1CCC[C@H]1C(=O)N[C@@H](Cc1ccccc1)C(=O)Nc1ccccn1 | 15
56 | Cc1cc(O)cc(C)c1C[C@H](N)C(=O)N1CCC[C@H]1C(=O)N[C@@H](Cc1ccccc1)C(=O)Nc1cccnc1 | 72.8
57 | Cc1cc(O)cc(C)c1C[C@H](N)C(=O)N1CCC[C@H]1C(=O)N[C@@H](Cc1ccccc1)C(=O)Nc1cccc2cccnc12 | 445
